Drawing on patent US11753397B2, “Cereblon binders for the degradation of ikaros” (C4 Therapeutics, Inc., priority 2018, dated 2023), this text covers GI50 for 27 compounds.

SMILES strings stand for the structures.

As usually defined, the GI50 is the concentration at which growth is held to half of that of the control. Low values mean greater sensitivity of the cells, high ones lower sensitivity of the cells.

This test relates to NCIH929.1 cells. In words: Cell viability assay (CellTiter-Glo 2.0, ATP quantification). The class given is cell-based. The following applies: NCIH929.1 cell viability, CellTiter-Glo 2.0, 96 hr incubation, top concentration 1 μM. Put shortly:
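Read-out is CellTiter-Glo 2.0 luminescence (ATP), after 96 h compound exposure at 37 °C, with a day-0 plate giving the CT0 baseline. Duplicate 10-point half-log titration from 1 μM applied to 750 cells/well in RPMI, 10% FBS, 0.05 mM 2-mercaptoethanol.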
A general note: In ATP-based viability assays light output follows the ATP content of the culture.
In turn, `O=C1CCC(N2C(=O)c3cccc(NCc4cnn(C5CCN(C(=O)C6(c7ccc(F)cc7)CCCCC6)CC5)c4)c3C2=O)C(=O)N1` (stereo not drawn) [Compound 68, 2-(2,6-dioxopiperidin-3-yl)-4-(((1-(1-(1-(4-fluorophenyl)cyclohexane-1-carbonyl)piperidin-4-yl)-1H-pyrazol-4-yl)methyl)amino)isoindoline-1,3-dione] came in with a concentration for 50% growth inhibition (GI50) of less than 0.1 µM.

Consider `Cn1cc(CNc2cccc3c2C(=O)N(C2CCC(=O)NC2=O)C3=O)cn1` (stereo not drawn) [Compound 141, 2-(2,6-dioxopiperidin-3-yl)-4-(((1-methyl-1H-pyrazol-4-yl)methyl)amino)isoindoline-1,3-dione], for which the concentration for 50% growth inhibition (GI50) was less than 0.1 µM. Compound `O=C1CCC(N2C(=O)c3cccc(NCc4cnn(C5CCN(C(=O)CN6CCOCC6)CC5)c4)c3C2=O)C(=O)N1` (stereo not drawn) [Compound 43, 2-(2,6-dioxopiperidin-3-yl)-4-(((1-(1-(2-morpholinoacetyl)piperidin-4-yl)-1H-pyrazol-4-yl)methyl)amino)isoindoline-1,3-dione] showed a concentration for 50% growth inhibition (GI50) of less than 0.1 µM.

Turning to `C#CC1(C(=O)N2CCC(n3cc(CNc4cccc5c4C(=O)N(C4CCC(=O)NC4=O)C5=O)cn3)CC2)CCC1` (stereo not drawn) [Compound 93, 2-(2,6-dioxopiperidin-3-yl)-4-(((1-(1-(1-ethynylcyclobutane-1-carbonyl)piperidin-4-yl)-1H-pyrazol-4-yl)methyl)amino)isoindoline-1,3-dione], the GI50 was less than 0.001 µM. Under `Cc1oc(-c2cccc(F)c2)nc1CC(=O)N1CCC(n2cc(CNc3cccc4c3C(=O)N(C3CCC(=O)NC3=O)C4=O)cn2)CC1` (stereo not drawn) [Compound 105, 2-(2,6-dioxopiperidin-3-yl)-4-(((1-(1-(2-(2-(3-fluorophenyl)-5-methyloxazol-4-yl)acetyl)piperidin-4-yl)-1H-pyrazol-4-yl)methyl)amino)isoindoline-1,3-dione] stands less than 0.1 µM; under `CC1(C(=O)N2CCC(n3cc(CNc4cccc5c4C(=O)N(C4CCC(=O)NC4=O)C5=O)cn3)CC2)CC1` (stereo not drawn) [Compound 36, 2-(2,6-dioxopiperidin-3-yl)-4-(((1-(1-(1-methylcyclopropane-1-carbonyl)piperidin-4-yl)-1H-pyrazol-4-yl)methyl)amino)isoindoline-1,3-dione], less than 0.1 µM. Turning to `O=C1CCC(N2C(=O)c3cccc(NCc4cnn(C5CCN(C(=O)C6CCN(C(=O)Cc7ccccc7)CC6)CC5)c4)c3C2=O)C(=O)N1` (stereo not drawn) [Compound 113, 2-(2,6-dioxopiperidin-3-yl)-4-(((1-(1-(1-(2-phenylacetyl)piperidine-4-carbonyl)piperidin-4-yl)-1H-pyrazol-4-yl)methyl)amino)isoindoline-1,3-dione], the GI50 is less than 0.1 µM.

As to `O=C1CCC(N2C(=O)c3cccc(NCc4cnn(C5CCN(C(=O)Cn6cccn6)CC5)c4)c3C2=O)C(=O)N1` (stereo not drawn) [Compound 18, 4-(((1-(1-(2-(1H-pyrazol-1-yl)acetyl)piperidin-4-yl)-1H-pyrazol-4-yl)methyl)amino)-2-(2,6-dioxopiperidin-3-yl)isoindoline-1,3-dione], the GI50 is less than 0.1 µM. `CC12CC(C(=O)N3CCC(n4cc(CNc5cccc6c5C(=O)N(C5CCC(=O)NC5=O)C6=O)cn4)CC3)(C1)C2` (stereo not drawn) [Compound 85, 2-(2,6-dioxopiperidin-3-yl)-4-(((1-(1-(3-methylbicyclo[1.1.1]pentane-1-carbonyl)piperidin-4-yl)-1H-pyrazol-4-yl)methyl)amino)isoindoline-1,3-dione]: the 50% growth inhibitory concentration (GI50) is less than 0.1 µM. `O=C1CCC(N2C(=O)c3cccc(NCc4cnn(C5CCN(C(=O)C6(Cc7ccc(F)cc7)CCC6)CC5)c4)c3C2=O)C(=O)N1` (stereo not drawn) [Compound 96, 2-(2,6-dioxopiperidin-3-yl)-4-(((1-(1-(1-(4-fluorobenzyl)cyclobutane-1-carbonyl)piperidin-4-yl)-1H-pyrazol-4-yl)methyl)amino)isoindoline-1,3-dione] returned a GI50 of less than 0.001 µM. Take `O=C1CCC(N2C(=O)c3cccc(NCc4cnn(C5CCN(C(=O)C6(c7ccc(F)cc7)CCC6)CC5)c4)c3C2=O)C(=O)N1` (stereo not drawn) [Compound 70, 2-(2,6-dioxopiperiidn-3-yl)-4-(((1-(1-(1-(4-fluorophenyl)cyclobutane-1-carbonyl)piperidin-4-yl)-1H-pyrazol-4-yl)methyl)amino)isoindoline-1,3-dione]: the 50% growth inhibitory concentration (GI50) was less than 0.001 µM. Compound `[2H][C@]1(N2C(=O)c3cccc(NCc4cnn(C5CCN(C(=O)OC(C)(C)C)CC5)c4)c3C2=O)CCC(=O)NC1=O` (single isomer, unassigned) [Compound 186] gave a GI50 of less than 0.1 µM. `CC1(C(=O)N2CCC(n3cc(CNc4cccc5c4C(=O)N(C4CCC(=O)NC4=O)C5=O)cn3)CC2)CCC1` (stereo not drawn) [Compound 33, 2-(2,6-dioxopiperidin-3-yl)-4-(((1-(1-(1-methylcyclobutane-1-carbonyl)piperidin-4-yl)-1H-pyrazol-4-yl)methyl)amino)isoindoline-1,3-dione] returned a GI50 of less than 0.001 µM.

With `O=C1CCC(N2C(=O)c3cccc(NCc4cnn(C5CCN(C(=O)CC6CCCC6)CC5)c4)c3C2=O)C(=O)N1` (stereo not drawn) [Compound 20, 4-(((1-(1-(2-cyclopentylacetyl)piperidin-4-yl)-1H-pyrazol-4-yl)methyl)amino)-2-(2,6-dioxopiperidin-3-yl)isoindoline-1,3-dione], the concentration for 50% growth inhibition (GI50) is less than 0.1 µM. Compound `O=C1CCC(N2C(=O)c3cccc(NCc4cnn(C5CCN(C(=O)C6CCN(C(=O)C7CCC7)CC6)CC5)c4)c3C2=O)C(=O)N1` (stereo not drawn) [Compound 112, 4-(((1-(1-(1-(cyclobutanecarbonyl)piperidine-4-carbonyl)piperidin-4-yl)-1H-pyrazol-4-yl)methyl)amino)-2-(2,6-dioxopiperidin-3-yl)isoindoline-1,3-dione] showed a GI50 of less than 0.1 µM. Compound `CN1CCC(n2cc(CNc3cccc4c3C(=O)N(C3CCC(=O)NC3=O)C4=O)cn2)CC1` (stereo not drawn) [Compound 157, 2-(2,6-dioxo-3-piperidyl)-4-[[1-(1-methyl-4-piperidyl)pyrazol-4-yl]methylamino]isoindoline-1,3-dione] displayed a 50% growth inhibitory concentration (GI50) of less than 0.1 µM.

`O=C1CCC(N2C(=O)c3cccc(NCc4cnn(C5CCN(C6CCC6)CC5)c4)c3C2=O)C(=O)N1` (stereo not drawn) [Compound 129, 4-(((1-(1-cyclobutylpiperidin-4-yl)-1H-pyrazol-4-yl)methyl)amino)-2-(2,6-dioxopiperidine-3-yl)isoindoline-1,3-dione] yielded a concentration for 50% growth inhibition (GI50) of less than 0.1 µM. In the case of `O=C1CCC(N2C(=O)c3cccc(NCc4cnn(C5CCN(C(=O)[C@@H]6CCCO6)CC5)c4)c3C2=O)C(=O)N1` (stereo partly drawn) [Compound 59, 2-(2,6-dioxopiperidin-3-yl)-4-(((1-(1-((S)-tetrahydrofuran-2-carbonyl)piperidin-4-yl)-1H-pyrazol-4-yl)methyl)amino)isoindoline-1,3-dione], the GI50 is less than 0.1 µM. The compound `O=C1CCC(N2C(=O)c3cccc(NCc4cnn(C5CCN(C(=O)C(F)(F)C(F)(F)F)CC5)c4)c3C2=O)C(=O)N1` (stereo not drawn) [Compound 83, 2-(2,6-dioxopiperidin-3-yl)-4-(((1-(1-(2,2,3,3,3-pentafluoropropanoyl)piperidin-4-yl)-1H-pyrazol-4-yl)methyl)amino)isoindoline-1,3-dione] registered a GI50 of less than 0.1 µM. The value for `O=C1CCC(N2C(=O)c3cccc(NCc4cnn(C5CCN(C(=O)OCc6ccccc6)CC5)c4)c3C2=O)C(=O)N1` (stereo not drawn) [Compound 146, benzyl 4-(4-(((2-(2,6-dioxopiperidin-3-yl)-1,3-dioxoisoindolin-4-yl)amino)methyl)-1H-pyrazol-1-yl)piperidine-1-carboxylate] was less than 0.1 µM. As to `O=C1CCC(N2C(=O)c3cccc(NCc4cnn(C5CCN(C(=O)CC6CCCCC6)CC5)c4)c3C2=O)C(=O)N1` (stereo not drawn) [Compound 27, 4-(((1-(1-(2-cyclohexylacetyl)piperidin-4-yl)-1H-pyrazol-4-yl)methyl)amino)-2-(2,6-dioxopiperidin-3-yl)isoindoline-1,3-dione], the GI50 is less than 0.001 µM.

For `CC1(C)C(C(=O)N2CCC(n3cc(CNc4cccc5c4C(=O)N(C4CCC(=O)NC4=O)C5=O)cn3)CC2)C1(C)C` (stereo not drawn) [Compound 89, 2-(2,6-dioxopiperidin-3-yl)-4-(((1-(1-(2,2,3,3,3-tetramethylcyclopropane-1-carbonyl)piperidin-4-yl)-1H-pyrazol-4-yl)methyl)amino)isoindoline-1,3-dione], the GI50 is less than 0.001 µM. Under `CC(C)(C)OC(=O)N1CCC(n2cc(CNc3cccc4c3C(=O)N(C3CCC(=O)NC3=O)C4=O)cn2)CC1(C)C` (stereo not drawn) [Compound 169, tert-Butyl 4-(4-(((2-(2,6-dioxopiperidin-3-yl)-1,3-dioxoisoindolin-4-yl)amino)methyl)-1H-pyrazol-1-yl)-2,2-dimethylpiperidine-1-carboxylate] stands less than 0.001 µM; under `O=C1CCC(N2C(=O)c3cccc(NCc4cnn(C5CCN(C(=O)CC6CC6)CC5)c4)c3C2=O)C(=O)N1` (stereo not drawn) [Compound 26, 4-(((1-(1-(2-cyclopropylacetyl)piperidin-4-yl)-1H-pyrazol-4-yl)methyl)amino)-2-(2,6-dioxopiperidin-3-yl)isoindoline-1,3-dione], less than 0.1 µM; under `O=C1CCC(N2C(=O)c3cccc(NCc4cnn(C5CCN(CC6CCC6)CC5)c4)c3C2=O)C(=O)N1` (stereo not drawn) [Compound 131, 4-(((1-(1-(cyclobutylmethyl)piperidin-4-yl)-1H-pyrazol-4-yl)methyl)amino)-2-(2,6-dioxopiperidin-3-yl)isoindoline-1,3-dione], less than 0.1 µM. Compound `O=C1CCC(N2C(=O)c3cccc(NCc4cnn(C5CCN(C(=O)C6(Cc7ccc(F)cc7)CC6)CC5)c4)c3C2=O)C(=O)N1` (stereo not drawn) [Compound 92, 2-(2,6-dioxopiperidin-3-yl)-4-(((1-(1-(1-(4-fluorobenzyl)cyclopropane-1-carbonyl)piperidin-4-yl)-1H-pyrazol-4-yl)methyl)amino)isoindoline-1,3-dione] registered a GI50 of less than 0.1 µM.

`O=C1CCC(N2C(=O)c3cccc(NCc4cnn(C5CCCC5)c4)c3C2=O)C(=O)N1` (stereo not drawn) [Compound 151, 4-[(1-cyclopentylpyrazol-4-yl)methylamino]-2-(2,6-dioxo-3-piperidyl)isoindoline-1,3-dione] yielded a GI50 of less than 0.1 µM.
